Laboratory results reported in patent publication US12569453B2, “Use of tapinarof for the treatment of atopic dermatitis” (Dermavant Sciences GmbH, priority 2018, dated 2026).

Columns and labels:
[1] = minipig 28 day toxicology, formulation F (NOAEL); type: in vivo; conditions: 3% [60 mg/kg/day]
[2] = rat subcutaneous 13-week toxicology study (NOAEL) and predicted safety margin; conditions: in vivo, sc, rat subcutaneous 3 mg/kg/day, read-out: NOAEL AUC(0-24)
Text: The predicted maximum systemic exposure to Tapinarof in this study was expected to be lower than the no observed adverse effects level (NOAEL) identified in nonclinical toxicology studies.

[3] = tested on: adolescent and adult subjects with AD; test: Phase II clinical study in AD: efficacy and subject-reported outcomes; type: in vivo, human; conditions: for itch reduction in weekly average NRS (median): Week 4; for probability of achieving EASI75 / probability of achieving IGA treatment success: model; for patients with 75% improvement in EASI score: post-hoc analysis
Text: This was a multicenter (United States, Canada, and Japan), randomized, double-blind (Sponsor-unblind), vehicle-controlled, 6-arm, parallel-group, dose-finding study in adolescent and adult subjects with AD.
The study consisted of 3 periods: up to 4 weeks screening, 12 weeks double-blind treatment, and 4 weeks post-treatment Follow-up. Study visits occurred at Screening; Baseline; Weeks 1, 2, 4, 8, and 12 during the treatment period; and 2 and 4 weeks after the last application of study treatment (i.e., at Weeks 14 and 16). Additional visits could occur, as needed, to follow-up on any skin reactions or ongoing AEs. A subject's total duration of study participation was approximately 16 to 20 weeks.
Two concentrations of Tapinarof cream (0.5% and 1%) and a vehicle control were evaluated following application to all AD lesions (except on the scalp) once or twice daily for 12 weeks. There were no planned dose adjustments during the study. It was expected that approximately 270 adolescent and adult subjects with AD would be screened to achieve 228 randomized subjects (1:1:1:1:1:1; N=3 8 for each of the 6 treatment groups) and approximately 204 evaluable subjects overall. At least 30 subjects were to be randomized in Japan to achieve at least 24 evaluable Japanese subjects. To ensure an adequate number of adolescents (aged 12 to 17 years) versus adults were represented in the overall study population, enrollment was limited to approximately 65% of either age group.
Efficacy was assessed by using a 5-point static Investigator Global Assessment (IGA) (0-4 scale), the Eczema Area and Severity Index (EASI), percent of body surface area (% BSA) involvement, severity of AD signs using a Total Severity Score (TSS), and by subject-reported itch/pruritus severity using a numeric rating scale (NRS) (from the Daily Sign and Symptom Severity Diary). Additional subject-reported outcomes included the expanded Patient-Oriented Eczema Measure (POEM), a Daily Sign and Symptom Severity Diary, and subject impression of severity of eczema symptoms and overall change in severity of eczema symptoms and overall change in itch/pruritus items. There was also an investigator global impression of change item.
Investigator's Global Assessment: The IGA is a clinical tool for assessing the current state/severity of a subject's AD. It is a static 5-point morphological assessment of overall disease severity, as determined by the investigator, using the clinical characteristics of erythema, infiltration, papulation, oozing, and crusting as guidelines. At each specified time point, the IGA was made without reference to previous scores. Scoring system ranges from 0 (=Clear) to 4 (=Severe).
Eczema Area and Severity Index: The EASI scoring system is a standard clinical tool for assessing the severity of AD that takes into account the overall severity of erythema, infiltration/papulation, excoriation, and lichenification, as well as the extent of BSA affected with AD. The 4 clinical signs are each graded on a 4-point scale (0 to 3) for each of the 4 specified body regions (head and neck, upper extremities, lower extremities, and trunk). The EASI is a static assessment made without reference to previous scores.
Body Surface Area: The extent of BSA affected by AD is a general indicator of disease severity and was measured throughout the study. The extent of BSA to which study treatment was applied was also recorded. For the purpose of approximate clinical estimation, the total palmar surface of the palm plus 5 digits was assumed to be approximately equivalent to 1% BSA.
Total Severity Score: A single target lesion that measured at least 3 cm at Screening and Baseline and was representative of subject disease, but not located on hands, feet or genitalia, was selected at Baseline to assess efficacy in treating a discrete area rather than an overall average of all areas. […]

[4] = 0.5% BID, Week 8, interim analysis
[5] = 0.5% QD, Week 8, interim analysis
[6] = 1% BID, Week 8, interim analysis
[7] = 1% QD, Week 8, interim analysis

SMILES: CC(C)c1c(O)cc(/C=C/c2ccccc2)cc1O [Tapinarof, 3,5-Dihydroxy-4-isopropyl-trans-stilbene]
- gender averaged NOAEL Cmax [1]: 0.84 ng/mL
- AUC(0-t) [2]: 99 ng·h/mL
- EASI75 responders who maintained response from Week 12 to Week 16 ([3]; 0.5% BID): 82%
- difference in probability of achieving EASI75 vs vehicle ([3]; 0.5% BID): 42.6%
- itch reduction in weekly average NRS (median) ([3]; 0.5% BID, interim analysis): −53.00%
- IGA response rate (IGA 0 or 1 and ≥2-grade improvement) [3, 4]: 35%
- subjects with 75% reduction in EASI from Baseline [3, 4]: 59%
- difference in probability of IGA response vs vehicle ([3]; 0.5% BID, Week 12): 22.4%
- expanded POEM item 8 (nights woken because of eczema), mean change ([3]; 0.5% BID, Week 12): −1.3
- patients with minimum three-point improvement in itch NRS ([3]; 0.5% BID, Week 12): 33%
- subjects reporting severity of AD symptoms as very improved ([3]; 0.5% BID, Week 12): 47%
- IGA response rate (IGA 0 or 1 and ≥2-grade improvement) ([3]; 0.5% BID, Week 12, NRI): 37%
- probability of achieving EASI75 ([3]; 0.5% BID, Week 12): 54.2%
- probability of achieving IGA treatment success ([3]; 0.5% BID, Week 12): 28.7%
- difference in probability of achieving EASI75 vs vehicle ([3]; 0.5% QD): 28.9%
- itch reduction in weekly average NRS (median) ([3]; 0.5% QD, interim analysis): −53.57%
- IGA response rate (IGA 0 or 1 and ≥2-grade improvement) [3, 5]: 40%
- subjects with 75% reduction in EASI from Baseline [3, 5]: 35%
- difference in probability of IGA response vs vehicle ([3]; 0.5% QD, Week 12): 15.7%
- expanded POEM item 8 (nights woken because of eczema), mean change ([3]; 0.5% QD, Week 12): −1.2
- patients with minimum three-point improvement in itch NRS ([3]; 0.5% QD, Week 12): 29%
- subjects reporting severity of AD symptoms as very improved ([3]; 0.5% QD, Week 12): 40%
- IGA response rate (IGA 0 or 1 and ≥2-grade improvement) ([3]; 0.5% QD, Week 12, NRI): 34%
- probability of achieving EASI75 ([3]; 0.5% QD, Week 12): 32.6%
- probability of achieving IGA treatment success ([3]; 0.5% QD, Week 12): 18.3%
- proportion of subjects with IGA treatment success ([3]; 0.5% QD, Week 12, primary analysis): 40%
- subjects rating pruritus symptoms very improved or moderately improved ([3]; 0.5% groups, Week 12): 80-81%
- EASI75 responders who maintained response from Week 12 to Week 16 ([3]; 1% BID): 63%
- difference in probability of achieving EASI75 vs vehicle ([3]; 1% BID): 74.5%
- itch reduction in weekly average NRS (median) ([3]; 1% BID, interim analysis): −56.35%
- IGA response rate (IGA 0 or 1 and ≥2-grade improvement) [3, 6]: 35%
- subjects with 75% reduction in EASI from Baseline [3, 6]: 45%
- absolute change in percent BSA affected from baseline (mean) ([3]; 1% BID, Week 12): 11.2
- difference in probability of IGA response vs vehicle ([3]; 1% BID, Week 12): 61.5%
- patients rating itch moderately improved to very improved ([3]; 1% BID, Week 12): 78%
- patients with minimum three-point improvement in itch NRS ([3]; 1% BID, Week 12): 30%
- reduction in total severity score (mean change) ([3]; 1% BID, Week 12): 5.8
- subjects reporting severity of AD symptoms as very improved ([3]; 1% BID, Week 12): 64%
- IGA response rate (IGA 0 or 1 and ≥2-grade improvement) ([3]; 1% BID, Week 12, NRI): 53%
- probability of achieving EASI75 ([3]; 1% BID, Week 12): 86.0%
- probability of achieving IGA treatment success ([3]; 1% BID, Week 12): 67.7%
- patients with 75% improvement in EASI score ([3]; 1% BID, Week 12): 60%
- EASI75 responders who maintained response from Week 12 to Week 16 ([3]; 1% QD): 57%
- difference in probability of achieving EASI75 vs vehicle ([3]; 1% QD): 77.0%
- itch reduction in weekly average NRS (median) ([3]; 1% QD, interim analysis): −57.14%
- IGA response rate (IGA 0 or 1 and ≥2-grade improvement) [3, 7]: 74%
- subjects with 75% reduction in EASI from Baseline [3, 7]: 63%
- absolute change in percent BSA affected from baseline (mean) ([3]; 1% QD, Week 12): 11.6
- difference in probability of IGA response vs vehicle ([3]; 1% QD, Week 12): 60.1%
- patients rating itch moderately improved to very improved ([3]; 1% QD, Week 12): 86%
- patients with minimum three-point improvement in itch NRS ([3]; 1% QD, Week 12): 32%
- reduction in total severity score (mean change) ([3]; 1% QD, Week 12): 5.5
- subjects reporting severity of AD symptoms as very improved ([3]; 1% QD, Week 12): 59%
- IGA response rate (IGA 0 or 1 and ≥2-grade improvement) ([3]; 1% QD, Week 12, NRI): 46%
- probability of achieving EASI75 ([3]; 1% QD, Week 12): 80.7%
- probability of achieving IGA treatment success ([3]; 1% QD, Week 12): 62.6%
- patients with 75% improvement in EASI score ([3]; 1% QD, Week 12): 51%
- subjects rating pruritus symptoms very improved or moderately improved ([3]; 1% groups, Week 12): 78-87%
- subjects with minimum 3-point improvement in itch/pruritus ([3]; Japanese population, 1% QD, Week 4 to Week 12): approximately 70%
- subjects rating severity of itch very improved or moderately improved ([3]; Tapinarof groups, Week 12): ≥ 78%
- subjects rating severity of eczema symptoms very improved or moderately improved ([3]; active treatment groups, Week 12): > 80%
- subjects rated by investigators as very improved or moderately improved ([3]; adolescent population, active treatment groups): ≥ 90%
